{"source": "patent US20200131142A1", "about": "“FARNESOID X RECEPTOR AGONISTS AND USES THEREOF” (Metacrine, Inc., priority 2017, published 2020)"}
{"target": "T1, hFXR (Homo sapiens, UniProt Q96RI1)", "T1 construct": "expressed in transfected cells; host or cells: CV-1 cells", "T1 sequence (Q96RI1 1-486)": "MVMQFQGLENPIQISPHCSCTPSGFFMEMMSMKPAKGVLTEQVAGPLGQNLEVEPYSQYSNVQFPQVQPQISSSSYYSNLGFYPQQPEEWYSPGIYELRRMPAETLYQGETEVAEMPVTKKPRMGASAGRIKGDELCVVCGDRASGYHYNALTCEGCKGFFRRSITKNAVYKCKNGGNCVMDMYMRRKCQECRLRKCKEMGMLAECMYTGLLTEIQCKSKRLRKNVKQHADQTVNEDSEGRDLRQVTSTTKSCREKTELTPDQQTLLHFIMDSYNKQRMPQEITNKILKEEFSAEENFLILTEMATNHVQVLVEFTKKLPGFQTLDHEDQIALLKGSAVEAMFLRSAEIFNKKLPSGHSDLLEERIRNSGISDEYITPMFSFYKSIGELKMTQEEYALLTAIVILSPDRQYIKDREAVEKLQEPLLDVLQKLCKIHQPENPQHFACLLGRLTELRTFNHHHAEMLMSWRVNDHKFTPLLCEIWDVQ", "T1 sequence (P19793 1-462 partner)": "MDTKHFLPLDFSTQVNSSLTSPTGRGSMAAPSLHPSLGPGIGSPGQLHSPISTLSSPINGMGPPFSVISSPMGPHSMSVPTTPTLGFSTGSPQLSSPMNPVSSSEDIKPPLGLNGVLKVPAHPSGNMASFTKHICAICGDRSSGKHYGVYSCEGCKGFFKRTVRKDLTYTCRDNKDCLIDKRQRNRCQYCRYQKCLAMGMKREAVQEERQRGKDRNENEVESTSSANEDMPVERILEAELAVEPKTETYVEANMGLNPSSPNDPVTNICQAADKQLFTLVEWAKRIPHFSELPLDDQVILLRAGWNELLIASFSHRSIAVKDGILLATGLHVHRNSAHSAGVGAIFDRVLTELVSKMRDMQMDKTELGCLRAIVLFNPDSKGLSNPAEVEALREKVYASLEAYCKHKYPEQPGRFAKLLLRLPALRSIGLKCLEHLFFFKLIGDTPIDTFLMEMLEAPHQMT", "assay": "In Vitro FXR Assay (TK): hFXR/hRXR TK-ECRE-luc reporter in transfected CV-1 cells", "assay_type": "cell-based", "details": "18 hrs incubation, luminescence, compounds with maximum efficacy <25% of the Fexarmine control classified as '+'", "summary_of_the_method": "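Transactivation is scored as luminescence in CV-1 cell lysates. The cells, co-transfected with hFXR/hRXR and a TK-ECRE-luc reporter, are exposed to DMSO-diluted compounds for 18 h.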", "units": {"EC50": "nM"}}
{"compound": "COc1ccc([C@H]2CC[C@H](CN(c3cccc(-c4cnc(C(=O)O)s4)c3)C(=O)[C@H]3CC[C@H](O)CC3)CC2)cc1C", "note": "[Compound 7.28, 5-(3-(trans-4-Hydroxy-N-((trans-4-(4-methoxy-3-methylphenyl)cyclohexyl)methyl)cyclohexanecarboxamido)phenyl)thiazole-2-carboxylic acid]", "EC50": "≥ 1000"}
{"compound": "CN(C)c1ccc(C23CCC(CN(c4cccc(-c5cnc(C6CC6)s5)c4)C(=O)[C@H]4CC[C@H](O)CC4)(CC2)CC3)cn1", "note": "[Compound 9.13, trans-N-(3-(2-Cyclopropylthiazol-5-yl)phenyl)-N-((4-(6-(dimethylamino)pyridin-3-yl)bicyclo[2.2.2]octan-1-yl)methyl)-4-hydroxycyclohexanecarboxamide]", "EC50": "≤ 250"}
{"compound": "COc1ccc([C@H]2CC[C@H](CN(c3cccc(-c4cnc(C5CC5)s4)c3)C(=O)[C@H]3CC[C@H](O)CC3)CC2)cc1Cl", "note": "[Compound 9.03, trans-N-((trans-4-(3-Chloro-4-methoxyphenyl)cyclohexyl)methyl)-N-(3-(2-cyclopropylthiazol-5-yl)phenyl)-4-hydroxycyclohexanecarboxamide]", "EC50": "≤ 250"}
{"compound": "COc1cnc([C@H]2CC[C@H](CN(c3cccc(-c4cnc(C5CC5)s4)c3)C(=O)[C@H]3CC[C@H](O)CC3)CC2)cc1C", "note": "[Compound 9.24, trans-N-(3-(2-Cyclopropylthiazol-5-yl)phenyl)-4-hydroxy-N-((trans-4-(5-methoxy-4-methylpyridin-2-yl)cyclohexyl)methyl)cyclohexanecarboxamide]", "EC50": "250 to 1000"}
{"compound": "COc1ncc(-c2ccnc(N(C[C@H]3CC[C@H](c4ccc(OC)c(C)c4)CC3)C(=O)[C@H]3CC[C@H](O)CC3)c2)s1", "note": "[Compound 6.01, trans-4-Hydroxy-N-((trans-4-(4-methoxy-3-methylphenyl)cyclohexyl)methyl)-N-(4-(2-methoxythiazol-5-yl)pyridin-2-yl)cyclohexanecarboxamide]", "EC50": "≤ 250"}
{"compound": "CCOc1ncc(-c2cccc(N(C[C@H]3CC[C@H](c4ccc(OC)c(C)c4)CC3)C(=O)[C@H]3CC[C@H](O)CC3)c2)s1", "note": "[Compound 7.16, trans-N-(3-(2-Ethoxythiazol-5-yl)phenyl)-4-hydroxy-N-((trans-4-(4-methoxy-3-methylphenyl)cyclohexyl)methyl) cyclohexanecarboxamide]", "EC50": "≤ 250"}
{"compound": "COc1ncc(-c2cccc(N(CC34CCC(c5ccc(OC)c(C)c5)(CC3)CC4)C(=O)[C@H]3CC[C@H](O)CC3)c2)s1", "note": "[Compound 11, trans-4-Hydroxy-N-((4-(4-methoxy-3-methylphenyl)bicyclo[2.2.2]octan-1-yl)methyl)-N-(3-(2-methoxythiazol-5-yl)phenyl)cyclohexanecarboxamide]", "EC50": "≤ 250"}
{"compound": "COc1ccc([C@H]2CC[C@H](CN(c3cccc(-c4cnc(C#N)s4)c3)C(=O)[C@H]3CC[C@H](O)CC3)CC2)cc1C", "note": "[Compound 7.26, trans-N-(3-(2-Cyanothiazol-5-yl)phenyl)-4-hydroxy-N-((trans-4-(4-methoxy-3-methylphenyl)cyclohexyl)methyl) cyclohexanecarboxamide]", "EC50": "250 to 1000"}
{"compound": "COc1ccc([C@H]2CC[C@H](CN(c3cccc(-c4cnc(C(N)=O)s4)c3)C(=O)[C@H]3CC[C@H](O)CC3)CC2)cc1C", "note": "[Compound 7.25, 5-(3-(trans-4-Hydroxy-N-((trans-4-(4-methoxy-3-methylphenyl)cyclohexyl)methyl)cyclohexanecarboxamido)phenyl)thiazole-2-carboxamide]", "EC50": "250 to 1000"}
